Patent US20220324913A1, “ANTIGENIC NEURON SPECIFIC ENOLASE PEPTIDES FOR DIAGNOSING AND TREATING AUTISM” (THE REGENTS OF THE UNIVERSITY OF CALIFORNIA, priority 2019, published 2022)

What was measured:
[1] = test system: maternal autoantibodies (plasma from mothers of ASD and TD children); test: ELISA of maternal plasma reactivity to recombinant NSE; assay type: binding, human; details: for Reactivity observed, number of mothers: plasma 1:500
Description: Once NSE was identified as a viable antigenic candidate by WB, we evaluated a larger sample set for NSE reactivity using an ELISA method. We tested plasma from 418 mothers enrolled in the CHARGE study with at least one child with ASD (n=232) or control samples from mothers of typically developing children (TD; n=186). Microtiter plates were coated with 100 μl of NSE (Novus Biologicals, Littleton, Colo.) at 2 μg/ml in carbonate coating buffer pH 9.6, incubated overnight at 4° C., washed four times with PBST 0.05%, and blocked with 2% Super Block (Thermo Scientific, Rockford, Ill.) for 1 hour at room temperature (RT). The plasma samples were diluted 1:500 and run in duplicate. Following dilution, 100 μl of diluted sample was added to each well, incubated for 1.5 hours, washed 4×, then incubated with 1:10,000 goat anti-human IgG-HRP IgG (Kirkegaard & Perry Laboratories, Inc., Gaithersburg, Mass.) for 1 hour. The plates were then washed and detection was performed by adding 100 μl of BD optEIA liquid substrate for ELISA (BD Biosciences, San Jose, Calif.). After 4 minutes, the reaction was stopped with 50 μl of 2N HCl. The absorbance was measured at 490-450 nm using an iMark Microplate Absorbance Reader (Biorad, Hercules, Calif., USA).
For the ELISA assay, positive cutoff values for reactivity to NSE were determined using a ROC curve. The ROC curve was created by plotting the true positive rate against the false positive rate at various threshold settings. We therefore created our curve using seven positive samples (labeled as +) from mothers that have a child with ASD and were positive by WB (true positive samples) along with the test samples. By using the positive samples as the reference event, the cutoff has greater specificity (less false positives) although sacrificing some sensitivity (limit of detection). The ROC plots sensitivity versus 1−Specificity for each value creating an Area Under the Curve (AUC) that is a representation of the accuracy of the test. Youden's index was used to calculate the cutoff.
NSE was identified by mass spectrometry as a potential target of the maternal autoantibodies and, based on its critical role in neurodevelopment, we chose to further evaluate NSE as a potential MAR ASD biomarker. Recombinant NSE was used to verify maternal autoantibody reactivity first by WB followed by ELISA. […] Therefore, we utilized an approach similar to that used for the seven previously-described MAR autoantigens to probe the samples for differential epitope recognition between ASD and TD groups.

maternal autoantibodies = test: Western blot of recombinant proteins probed with maternal plasma; assay type: binding, human; details: compared with NNE, ALDOC and CKB; plasma 1:800
Description: To test autoantibody reactivity to FMB Fraction #12 that contained proteins between 37-45 kDa, the fraction was probed with maternal plasma samples as described previously (FIG. 1D). In summary, 200 μg of protein were denatured by heating at 100° C. for 10 min in SDS buffer and separated on a 12% SDS-PAGE gel at 200V for 1 hour. Proteins were transferred to a 0.2 μm nitrocellulose membrane overnight (10V for 16 hours) at 4° C. To confirm the transfer, the membrane was stained with Ponceau dye and cut into 3 mm strips that were labeled and blocked with 1% casein buffer. Plasma samples were then diluted (1:400), added to the strips, incubated for 1.5 hours at RT followed by five washes, and incubated with 1:20,000 goat anti-human IgG-HRP for 30 minutes. After five washes, detection was performed by adding 800 μl of Super Signal substrate and strips were placed on a glass plate to be imaged using the FluoroChem 8900 imager. Images were scored as 0 if negative and 1 if positive.
The top 4 commercially available antigens identified by mass spectrometry with a 100 C.I. were selected for further evaluation. To evaluate antibody reactivity against our top hits including NSE, NNE, ALDOC, and CKB, 2 μg protein of recombinant protein (Novus Biologicals, Littleton, Colo.) were probed with diluted maternal plasma (1:800) by WB as described previously. […]

## NSE: recombinant neuron specific enolase protein (Novus Biologicals), target autoantigen of maternal autoantibodies
[1]; mothers that had a child with ASD
  Reactivity observed, percent of mothers: 6.2%
[1]; mothers that have a typically developing child (TD)
  Reactivity observed, percent of mothers: 5%
[1]; of 186 mothers that have a typically developing child
  Reactivity observed, number of mothers: 21
[1]; of the 232 mothers that had a child with ASD
  Reactivity observed, number of mothers: 26
Maternal autoantibodies
  Maternal autoantibody reactivity against recombinant protein: greatest specificity
